Assay results: PMC12040169 (PLOS Biology, 2025)

assay: in vitro; settings: human, hela cells, % viability

SMILES	viability at 28.5 h, 10 µM [%]
CCn1c(SCC(=O)Nc2ccc(C(=O)O)cc2)nnc1-c1ccccc1C [CBK265927]	107
Cc1ccc(-c2nc3ccccc3[nH]2)cc1NC(=O)COc1cccc([N+](=O)[O-])c1 [CBK265932]	94.3
CCc1cccc(CC)c1NC(=O)CN(c1cccc(Cl)c1Cl)S(C)(=O)=O [CBK265934]	103
OCCN(CCO)c1nc(-c2ccccc2)nc2sc(-c3ccccc3)cc12 [CBK265935]	105
COCCn1c(SCc2ccc([N+](=O)[O-])cc2)nnc1-c1ccccc1 [CBK265937]	89.6
Cc1sc2ncnc(SCC(=O)Nc3sc4c(c3C#N)CCCC4)c2c1-c1ccccc1 [CBK265938]	93.3
NCc1oc(-c2ccccc2)cc1C(=O)O [CBK265941C]	89.8
COC(=O)c1c(NC(=O)CSc2nnc3ccccn23)sc(C)c1C [CBK265943]	95.7
COc1ccc(-c2ccc(CCC(=O)O)n2Cc2ccco2)cc1 [CBK265945]	92.6
NC1=C(c2nc3ccccc3s2)C(=O)CN1CCN1CCOCC1 [CBK265946]	93.1
N#Cc1c(C(F)(F)F)cc(-c2cccs2)nc1SCC(O)CN1CCSCC1 (stereo not drawn) [CBK265947]	88.2
O=C(COc1ccc(S(=O)(=O)NC2CCCCC2)cc1)N1CCN(c2cccc(Cl)c2)CC1 [CBK265948]	90.6
COc1ccc(-c2cc(-c3ccccc3)c(C#N)c(S(=O)(=O)Cc3ccccc3)n2)cc1 [CBK265949]	89.6
NC(=S)Nn1c(CCC(=O)O)ccc1-c1cccs1 [CBK265952]	92.3
O=C(O)CCc1ccc(-c2ccc(F)cc2)n1Cc1ccco1 [CBK265953]	83.9
Cc1cc(I)ccc1NC(=O)CN(c1ccccc1)S(=O)(=O)c1ccccc1[N+](=O)[O-] [CBK265954]	78.6
CCn1c(COc2ccccc2Cl)nnc1SCC(=O)N1c2ccccc2Sc2ccccc21 [CBK265957]	114
COC(=O)c1ccccc1NC(=O)CCSc1ccc(C)cc1 [CBK265958]	91.9
O=C(COc1ccc(S(=O)(=O)NC2CCCCC2)cc1)Nc1ccc2c(c1)OCO2 [CBK265960]	84.5
Cc1ccc(Nc2nc(N)nc(CSCCO)n2)cc1 [CBK265962]	97.1
O=c1c2ccccc2nc2c3ccccc3c(NCc3ccccn3)nn12 [CBK265964]	89.3
CCOC(=O)c1cnc2c(C)c(Cl)ccc2c1NCCN(C)C [CBK265965]	102

SMILES	viability at 28.5 h, 10 µM [%]
COC(=O)c1ccccc1NC(=O)CSc1nnc(-c2ccccc2Cl)[nH]1 [CBK265966]	95.4
N#Cc1cc2c(nc1SCC(O)COCc1ccccc1)CCCC2 (stereo not drawn) [CBK265967]	104
Clc1ccc(-c2csc3ncnc(SCc4ccco4)c23)cc1 [CBK265972]	90.5
CCOC(=O)c1cnc2c(C)cc(Cl)cc2c1N1CCN(Cc2ccccc2)CC1 [CBK265975]	108
CC(C)C12CN3CC(C(C)C)(CN(C1)C3c1ccc3c(c1)OCO3)C2=O (stereo not drawn) [CBK265981]	100
O=C(CN1C(=O)c2ccccc2S1(=O)=O)N(Cc1ccccc1)Cc1ccccc1 [CBK265982]	107
O=C(O)CCc1ccc(-c2ccc(Cl)cc2)n1Cc1ccco1 [CBK265984]	92.4
COc1ccc(-n2c(Cc3ccccc3)nnc2SCC(=O)c2ccccc2)cc1 [CBK265989]	105
Cc1cc(C)c(NC(=O)CSc2nnc(Cc3ccccc3)n2C)c(C)c1 [CBK265990]	110
Cc1ccc(S(=O)(=O)NCC(=O)N2CCN(Cc3ccccc3)CC2)cc1 [CBK265991]	104
O=C(Nc1ccccc1N1CCOCC1)c1ccc(OCc2ccccc2)cc1 [CBK265992]	96.3
COC(=O)COc1ccc(S(=O)(=O)N2CCC(C(N)=O)CC2)cc1 [CBK265993]	96.7
CCc1ccc(OCC(=O)O/N=C(\N)c2ccncc2)c(Br)c1 [CBK265994]	86.6
Cc1ccc2nc(SCC(=O)O)nc(C)c2c1 [CBK265996]	94.1
CC(=O)Oc1ccc(C(=O)Nc2ccc3c(c2)C(=O)N(CCC(=O)O)C3=O)cc1 [CBK265997]	105
Cn1c(COc2ccccc2Cl)nnc1SCC(=O)N1c2ccccc2Sc2ccccc21 [CBK266001]	96.5
O=C(COc1cccc2ccccc12)Nc1ccc(O)cc1 [CBK266002]	88.6
COC(=O)c1c(C)[nH]c(C(=O)CSc2ncnc3sc(C)c(-c4ccccc4)c23)c1C [CBK266004]	99.5
CC(NC(=O)Cn1c(-c2nonc2N)nc2ccccc21)c1ccccc1 (stereo not drawn) [CBK266006]	106
COc1ccc(OC)c(NC(=O)c2c(NCc3ccncc3)sc3c2CCC3)c1 [CBK266007]	90.1
O=C(COc1ccccc1[N+](=O)[O-])Nc1ccc(Br)cc1C(=O)O [CBK266008]	84.9
COc1ccc(S(=O)(=O)Nc2ccc(S(=O)(=O)Nc3nccs3)cc2)cc1C [CBK266011]	101

SMILES	viability at 28.5 h, 10 µM [%]
CC(C)(c1ccccc1)c1ccc(OCC(=O)Nc2cccc(C(=O)O)c2)cc1 [CBK266014]	102
CCOC(=O)c1ccc(-n2c(CCC(=O)O)ccc2-c2cccs2)cc1O [CBK266015]	103
CCOc1ccc(-n2c(SCc3ccc(Br)cc3)nnc2-c2ccncc2)cc1 [CBK266017]	103
NC(=O)Nn1c(CCC(=O)O)ccc1-c1cccs1 [CBK266019]	93.1
Cc1ccc(O)c(Nc2ncnc3ccccc23)c1 [CBK266020C]	93.2
CCOC(=O)c1cnc2c(C)cc(C)cc2c1NCCCN(C)C [CBK266021]	76.5
O=C(COc1ccc(S(=O)(=O)NC2CCCCC2)cc1)Nc1cccc2ccccc12 [CBK266023]	100
c1ccc(-c2ccc(OCCCCN3CCNCC3)cc2)cc1 [CBK266028G]	95.8
CC(Oc1cccc(Cl)c1)C(=O)O/N=C(\N)Cc1cccc2ccccc12 (stereo not drawn) [CBK266033]	90.3
CCOC(=O)C1CCN(Cc2c(O)c3ccccc3oc2=O)CC1 [CBK266035]	70.6
Cc1ccc(OCC(=O)Nc2ccc3c(c2)oc2ccccc23)cc1[N+](=O)[O-] [CBK266036]	100
COC(=O)c1ccccc1NC(=O)COc1ccc(Cl)c2cccnc12 [CBK266037]	104
Cc1[nH]c2ccccc2c1C(c1ccccc1OCC(=O)O)c1c(C)[nH]c2ccccc12 [CBK266038]	109
O=C(NCC1CCCO1)c1ccccc1Sc1ccc([N+](=O)[O-])cc1Cl (stereo not drawn) [CBK266041]	88.8
CN(C)C(=O)CSc1nnc(-c2cccc3ccccc23)n1-c1ccccc1 [CBK266044]	92
Cc1cc(C)c(OCCNC(=O)c2ccccc2Sc2ccccc2C#N)c(C)c1 [CBK266048]	97.7
Cc1cc(Cl)c(OCCN2CCCCCC2)c(Br)c1 [CBK266049G]	91.7
O=C(CSc1nnc(Cc2cccc3ccccc23)n1-c1ccccc1)NC1CCCCC1 [CBK266052]	102
COc1ccc(NC(=O)CSc2nnc(C(O)c3ccccc3)n2C)cc1 (stereo not drawn) [CBK266053]	110
Cn1c(NC(=O)CSc2nnc(Cc3cccc4ccccc34)o2)cc(=O)n(C)c1=O [CBK266055]	115
Cc1cc(Cl)cc(C)c1OCCN1CCNCC1 [CBK266057G]	84.4
COc1cccc(NC(=O)CSCc2n[nH]c(=O)[nH]2)c1 [CBK266058]	95.8

SMILES	viability at 28.5 h, 10 µM [%]
O=C(NC(=S)Nc1ccc(N2CCN(Cc3ccccc3Cl)CC2)cc1)c1ccco1 [CBK266066]	101
Cc1nn(Cc2ccccc2)c(C)c1NC(=O)CSc1nc2sc3c(c2c(=O)n1C)CCC3 [CBK266069]	96.4
Clc1ccc(SCCN2CCNCC2)cc1 [CBK266077G]	94.2
Cc1cc(C)c(OCCOCCN2CCNCC2)c(Br)c1 [CBK266079G]	99.6
CC(=O)OC(COc1ccc2ccccc2c1Br)Cn1cnc2ccccc21 (stereo not drawn) [CBK266083]	84.6
Cc1cc(C)c2c(=O)[nH]c(SCC(=O)c3ccc(F)c(C)c3)nc2n1 [CBK266087]	102
OCCN1CCN(Cc2nc(O)c3ccccc3n2)CC1 [CBK266089]	98.5
CC(C)Oc1cccc(C(=O)Nc2ccc(N3CCN(C)CC3)cc2)c1 [CBK266090]	90.5
CN(C)C1(c2nnnn2CCOC(=O)Nc2ccc(Cl)cc2)CCCCC1 [CBK266093]	94.5
COc1ccccc1NC(=O)CSc1nc(O)c2c(C)cc(C)nc2n1 [CBK266095]	91.8
CC1(C)CC(=O)C2=C(C1)Nc1nc(SCc3ccc([N+](=O)[O-])cc3)[nH]c(=O)c1C2c1cccnc1 (stereo not drawn) [CBK266096]	108
O=C(CSc1nnc(-c2cccnc2)n1-c1ccc(Br)cc1)Nc1cc(C(F)(F)F)ccc1Cl [CBK266099]	96.5
O=C(O)CCC(=O)Nc1ccccc1C(=O)N1CCCCC1 [CBK266100]	99.5
COC(=O)Cc1ccc(NC(=S)N2CCC(C(N)=O)(N3CCCCC3)CC2)cc1 [CBK266101]	97.6
COc1nnc(-c2ccc(N3CCOCC3)c(NC(=O)COc3ccc(C)cc3)c2)c2ccccc12 [CBK266103]	97.6
Cc1cccc(Nc2nc(N)nc(CSc3nccn3C)n2)c1 [CBK266105]	98.7
CCc1ccc(Oc2c(CC(=O)O)oc3cc(O)c(CC)cc3c2=O)cc1 [CBK266108]	106
COc1ccccc1NC(=O)c1ccc(OC(C)C(=O)O)cc1 (stereo not drawn) [CBK266109]	106
O=C(O)CCN/C(=N\S(=O)(=O)c1ccccc1)c1ccccc1 [CBK266111]	92.2
Cc1nn(Cc2ccccc2)c(C)c1NC(=O)CSc1nc2c(c(C(F)(F)F)n1)CCc1ccccc1-2 [CBK266112]	105
O=C(Cn1nc(C(F)(F)F)c2c1CCC2)N1CCN(Cc2ccccc2)CC1 [CBK266113]	109
